For experiment [1], the target named is CSNK2A2 (Homo sapiens, UniProt P19784). Briefly: DSF selectivity screening. It counts as binding. The note with it: 10 μM compound. Here is the method:
The assay was performed as previously described.[29],[35] Briefly, recombinant protein kinase domains at a concentration of 2 μM were mixed with a 10 μM compound in a buffer containing 20 mM HEPES, pH 7.5, and 500 mM NaCl. SYPRO Orange (5000×, Invitrogen) was added as a fluorescence probe (1 μL per mL). Subsequently, temperature-dependent protein unfolding profiles were measured using a QuantStudio 5 real-time PCR machine (Thermo Fisher). Excitation and emission filters were set to 465 and 590 nm, respectively. The temperature was raised with a step rate of 3 °C per minute. Data points were analyzed with internal software (Thermal Shift Software version 1.4, Thermo Fisher) using the Boltzmann equation to determine the inflection point of the transition curve (Table S4).

The target in experiment [2] is T1, RIPK1 (Homo sapiens, UniProt Q13546).
T1 construct: full-length LIMK1/2, RIPK1, BTK, and LRRK2 cloned in a frame in a NanoLuc-vector (Promega); host or cells: HEK293T
T1 sequence (Q13546 1-671): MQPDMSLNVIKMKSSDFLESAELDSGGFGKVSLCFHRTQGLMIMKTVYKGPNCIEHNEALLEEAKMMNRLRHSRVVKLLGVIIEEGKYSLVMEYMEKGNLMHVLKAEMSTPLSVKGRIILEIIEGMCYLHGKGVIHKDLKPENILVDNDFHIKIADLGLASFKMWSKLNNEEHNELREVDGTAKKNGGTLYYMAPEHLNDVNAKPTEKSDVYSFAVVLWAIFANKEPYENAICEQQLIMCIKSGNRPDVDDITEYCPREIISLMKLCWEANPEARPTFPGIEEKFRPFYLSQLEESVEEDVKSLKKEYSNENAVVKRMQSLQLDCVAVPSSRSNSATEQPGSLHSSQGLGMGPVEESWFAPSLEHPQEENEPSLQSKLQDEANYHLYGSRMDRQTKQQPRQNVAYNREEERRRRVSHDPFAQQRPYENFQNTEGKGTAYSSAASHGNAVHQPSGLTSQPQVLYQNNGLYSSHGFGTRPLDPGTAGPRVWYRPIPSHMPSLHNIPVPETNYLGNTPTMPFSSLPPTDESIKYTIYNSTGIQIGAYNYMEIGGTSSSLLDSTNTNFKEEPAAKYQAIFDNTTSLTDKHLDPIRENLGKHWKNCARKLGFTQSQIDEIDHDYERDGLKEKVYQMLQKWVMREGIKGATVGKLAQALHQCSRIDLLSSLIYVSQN
Description: NanoBRET cellular target engagement. It counts as cell-based. The following applies: RIPK1, HEK293T cells. Here is the method:
The assay was performed as described previously.[31],[32] In brief, full-length LIMK1/2, RIPK1, BTK, and LRRK2 cloned in a frame in a NanoLuc-vector (Promega) were transfected into HEK293T cells (ATCC CRL-1573) using FuGENE HD (Promega, E2312), and proteins were allowed to express for 20 h. The serially diluted inhibitor and NanoBRET Kinase Tracer (Promega) used at the previously determined Tracer KD,app (Table S1) were pipetted into white 384-well plates (Greiner 781 207) using an ECHO 550 acoustic dispenser (Labcyte). The corresponding transfected cells were added and reseeded at a density of 2 × 10^5 cells/mL after trypsinization and resuspension in Opti-MEM without phenol red (Life Technologies). The system was allowed to equilibrate for 2 h at 37 °C and 5% CO2 prior to BRET measurements. To measure BRET, a NanoBRET Nano-Glo substrate and an extracellular NanoLuc inhibitor (Promega, N2160) were added as per the manufacturer's protocol, and filtered luminescence was measured on a PHERAstar plate reader (BMG Labtech) equipped with a luminescence filter pair (a 450 nm BP filter (donor) and a 610 nm LP filter (acceptor)). Competitive displacement data were then plotted using GraphPad Prism 10 software using a normalized three-parameter curve fit with the following equation: Y = 100/( [drawing 1] ).

Experiment [3] has as its system cofilin phosphorylation (LIMK1/2 substrate). Briefly: Western blot of cofilin phosphorylation in LN-229 cells. Type of experiment: cell-based, human. The following applies: 6 h. As to the method:
LN-229, a human glioblastoma cell line, was cultured until passage 17 in Dulbecco’s modified Eagle’s medium (DMEM) with GlutaMAX, 10% fetal bovine serum (FBS), and 1% penicillin/streptomycin. Cells were maintained in an incubator with 5% CO2 at 37 °C. For the treatment, 3 × 10^5 cells were plated and treated with the tested compounds at the indicated concentrations and DMSO as the control for 6 h. The cells were then lysed using RIPA buffer (50 mM Tris HCl pH 7.4, 150 mM NaCl, 1% Triton X-100, 1% NaDOC, 0.1% SDS, and 1 mM EDTA), freshly supplemented with protease and phosphatase inhibitor cocktails (Sigma-Aldrich, Darmstadt, Germany). After a 1 h incubation on ice, the lysates were centrifuged for 30 min at 250g, and the protein-containing supernatant was collected. The protein concentrations were determined using the protein assay dye reagent concentrate (Bradford, Bio-Rad, Hercules, CA, USA) and prediluted protein assay standard bovine serum albumin (BSA) set (Thermo Fisher Scientific, Darmstadt, Germany). Then, equal amounts of protein were mixed with a Roti-Load 1 dye (Carl Roth, Karlsruhe, Germany) and 4× Laemmli buffer (Bio-Rad, Hercules, CA, USA), denatured at 95 °C, and run on NuPAGE 4–12% bis-Tris gels (Thermo Fisher Scientific, Darmstadt, Germany). Proteins were blotted on methanol-activated PVDF transfer membranes (Thermo Fisher Scientific, Darmstadt, Germany) using the wet transfer method with transfer buffer (Thermo Fisher Scientific, Darmstadt, Germany) and 20% methanol. Subsequently, the membranes were blocked with 5% milk or 3% BSA in 0.1% TBS-T for 1 h at RT and incubated overnight at 4 °C with primary antibodies: GAPDH (catalog no. 2118, Cell Signaling Technology, MA, USA, 1:1000 dilution), LIMK1 (catalog no. 3842, Cell Signaling Technology, 1:1000 dilution), LIMK2 (catalog no. 3845, 1:500 dilution), p-cofilin (catalog no. 3313, Cell Signaling Technology, 1:1000 dilution), cofilin (catalog no. 5175, Cell Signaling Technology, 1:1000 dilution). […]

The target of experiment [4] is WNK2 (Homo sapiens, UniProt Q9Y3S1). Briefly: scanMAX KINOMEscan (Eurofins). Type of experiment: binding.
Chain of WNK2 (Q9Y3S1 whole entry): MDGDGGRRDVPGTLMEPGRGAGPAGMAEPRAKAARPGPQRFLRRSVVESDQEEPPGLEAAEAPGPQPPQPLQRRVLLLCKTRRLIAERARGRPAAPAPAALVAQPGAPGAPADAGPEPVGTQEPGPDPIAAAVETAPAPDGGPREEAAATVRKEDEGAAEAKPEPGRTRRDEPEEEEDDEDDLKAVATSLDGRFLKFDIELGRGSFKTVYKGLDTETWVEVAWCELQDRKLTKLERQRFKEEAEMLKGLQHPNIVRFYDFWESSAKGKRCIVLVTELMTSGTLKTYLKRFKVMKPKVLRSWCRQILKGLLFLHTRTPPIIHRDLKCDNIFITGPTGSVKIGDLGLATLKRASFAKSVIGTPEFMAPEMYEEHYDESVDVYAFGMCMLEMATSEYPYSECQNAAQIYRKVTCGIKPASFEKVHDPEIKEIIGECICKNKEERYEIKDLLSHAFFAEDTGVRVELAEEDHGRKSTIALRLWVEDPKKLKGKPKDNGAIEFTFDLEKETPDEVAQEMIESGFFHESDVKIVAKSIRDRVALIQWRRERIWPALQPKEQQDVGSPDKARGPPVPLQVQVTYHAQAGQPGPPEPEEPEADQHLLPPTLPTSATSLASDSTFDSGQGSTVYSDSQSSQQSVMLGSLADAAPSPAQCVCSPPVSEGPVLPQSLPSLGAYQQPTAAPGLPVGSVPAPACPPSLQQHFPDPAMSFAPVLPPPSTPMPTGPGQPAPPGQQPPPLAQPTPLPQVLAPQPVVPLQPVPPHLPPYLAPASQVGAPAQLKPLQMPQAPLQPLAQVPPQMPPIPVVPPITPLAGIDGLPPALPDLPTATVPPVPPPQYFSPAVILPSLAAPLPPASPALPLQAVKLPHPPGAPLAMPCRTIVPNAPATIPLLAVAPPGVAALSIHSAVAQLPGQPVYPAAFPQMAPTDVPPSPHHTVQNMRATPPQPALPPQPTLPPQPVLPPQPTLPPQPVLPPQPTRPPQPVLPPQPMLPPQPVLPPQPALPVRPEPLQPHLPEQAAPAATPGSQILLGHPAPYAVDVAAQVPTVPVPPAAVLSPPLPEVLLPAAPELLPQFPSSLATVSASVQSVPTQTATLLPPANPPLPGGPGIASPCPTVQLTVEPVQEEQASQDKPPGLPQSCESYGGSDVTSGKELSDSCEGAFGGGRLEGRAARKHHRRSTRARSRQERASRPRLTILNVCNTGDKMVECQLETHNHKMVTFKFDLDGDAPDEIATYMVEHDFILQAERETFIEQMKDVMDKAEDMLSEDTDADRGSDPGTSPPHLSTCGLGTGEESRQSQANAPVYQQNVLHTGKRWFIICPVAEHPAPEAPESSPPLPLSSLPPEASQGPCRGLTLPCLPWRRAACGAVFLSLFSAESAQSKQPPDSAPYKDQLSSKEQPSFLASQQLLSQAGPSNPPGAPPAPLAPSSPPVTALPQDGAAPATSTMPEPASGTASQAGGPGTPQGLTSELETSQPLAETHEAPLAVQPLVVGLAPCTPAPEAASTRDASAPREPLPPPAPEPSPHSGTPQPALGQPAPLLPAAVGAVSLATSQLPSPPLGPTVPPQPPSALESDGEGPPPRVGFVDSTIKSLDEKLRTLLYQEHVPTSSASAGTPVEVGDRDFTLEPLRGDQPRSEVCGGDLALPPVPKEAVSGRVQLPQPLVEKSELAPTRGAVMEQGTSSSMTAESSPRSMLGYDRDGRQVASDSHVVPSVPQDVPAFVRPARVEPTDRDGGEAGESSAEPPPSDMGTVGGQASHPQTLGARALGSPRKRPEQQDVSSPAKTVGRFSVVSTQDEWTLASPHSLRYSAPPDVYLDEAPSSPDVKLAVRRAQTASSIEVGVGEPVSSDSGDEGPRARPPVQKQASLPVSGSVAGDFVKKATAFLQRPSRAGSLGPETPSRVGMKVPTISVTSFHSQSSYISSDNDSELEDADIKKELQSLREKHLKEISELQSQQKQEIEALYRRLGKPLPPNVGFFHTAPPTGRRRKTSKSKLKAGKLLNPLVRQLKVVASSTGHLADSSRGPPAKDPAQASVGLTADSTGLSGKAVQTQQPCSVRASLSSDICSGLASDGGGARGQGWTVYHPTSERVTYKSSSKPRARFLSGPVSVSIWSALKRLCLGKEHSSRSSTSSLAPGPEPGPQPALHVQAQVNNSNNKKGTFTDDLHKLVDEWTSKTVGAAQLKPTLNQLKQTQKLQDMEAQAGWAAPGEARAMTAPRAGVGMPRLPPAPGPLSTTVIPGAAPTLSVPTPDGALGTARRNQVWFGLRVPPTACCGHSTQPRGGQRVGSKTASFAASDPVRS
Experiment [5] addresses KIT(D816V) (Homo sapiens, UniProt P10721, D816V). Description: biochemical. Type of experiment: binding. The note with it: compound concentration 100 nM; Entrez KIT; read-out: Percent Control.

For orientation: ΔTm means the shift of the melting midpoint relative to a reference. What is called EC50 is the concentration at which the effect is half-maximal.

Where “and” joins values, the source holds several entries; their conditions need not be identical. Equal values may be shown once. Read-outs that look alike come from different tables or passages of the source.

Chain of CSNK2A2 (P19784 1-334): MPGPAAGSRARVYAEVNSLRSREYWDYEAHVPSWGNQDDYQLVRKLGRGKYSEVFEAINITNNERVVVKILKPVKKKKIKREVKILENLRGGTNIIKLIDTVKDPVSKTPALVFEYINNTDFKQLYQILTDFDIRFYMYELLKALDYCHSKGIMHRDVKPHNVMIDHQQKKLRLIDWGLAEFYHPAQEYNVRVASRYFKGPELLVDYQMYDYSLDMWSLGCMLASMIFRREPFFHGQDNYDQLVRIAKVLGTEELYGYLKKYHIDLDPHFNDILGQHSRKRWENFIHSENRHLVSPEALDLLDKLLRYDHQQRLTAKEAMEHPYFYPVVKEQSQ
Chain of KIT(D816V) (P10721 26-976 D816V): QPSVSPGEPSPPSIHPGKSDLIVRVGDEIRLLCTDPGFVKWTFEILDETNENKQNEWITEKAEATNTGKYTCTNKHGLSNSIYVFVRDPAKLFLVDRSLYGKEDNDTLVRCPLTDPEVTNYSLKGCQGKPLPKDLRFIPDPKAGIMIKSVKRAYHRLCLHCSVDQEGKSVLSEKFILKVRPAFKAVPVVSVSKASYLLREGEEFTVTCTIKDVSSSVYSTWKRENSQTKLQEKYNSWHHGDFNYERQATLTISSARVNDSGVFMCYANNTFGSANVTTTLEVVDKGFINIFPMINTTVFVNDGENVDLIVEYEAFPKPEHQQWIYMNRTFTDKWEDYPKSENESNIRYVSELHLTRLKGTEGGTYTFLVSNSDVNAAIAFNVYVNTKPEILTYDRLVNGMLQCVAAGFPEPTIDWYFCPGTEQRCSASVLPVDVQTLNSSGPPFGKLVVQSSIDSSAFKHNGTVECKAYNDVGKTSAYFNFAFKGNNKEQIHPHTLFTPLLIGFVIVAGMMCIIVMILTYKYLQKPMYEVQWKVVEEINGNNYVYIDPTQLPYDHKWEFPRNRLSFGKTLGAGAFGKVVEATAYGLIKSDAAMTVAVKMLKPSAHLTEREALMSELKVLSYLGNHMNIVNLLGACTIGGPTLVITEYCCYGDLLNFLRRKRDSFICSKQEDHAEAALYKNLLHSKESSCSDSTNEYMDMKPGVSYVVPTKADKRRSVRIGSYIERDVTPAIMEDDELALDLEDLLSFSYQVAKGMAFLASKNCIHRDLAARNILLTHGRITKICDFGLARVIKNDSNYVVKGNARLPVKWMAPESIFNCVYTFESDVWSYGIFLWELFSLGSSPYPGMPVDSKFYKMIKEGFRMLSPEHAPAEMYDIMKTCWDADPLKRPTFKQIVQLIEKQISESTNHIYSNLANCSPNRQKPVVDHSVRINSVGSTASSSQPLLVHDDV

In the case of `CN1C(=O)[C@@H](N2CCc3c(nn(Cc4ccccc4)c3C(N)=O)C2=O)COc2cc(Cl)ccc21` [Compound 10, (S)-2-benzyl-6-(8-chloro-5-methyl-4-oxo-2,3,4,5-tetrahydrobenzo[b][1,4]oxazepin-3-yl)-7-oxo-4,5,6,7-tetrahydro-2H-pyrazolo[3,4-c]pyridine-3-carboxamide], the ΔTm at 10 µM in experiment [1] was determined as 2.3 °C. The EC50 in experiment [2] (read-out: EC50 (NanoBRET)) is 6.3 nM and 7.8 nM; in experiment [2] (read-out: EC50 (NanoBRET), Figure 4C), 7.85 nM. The “cofilin phosphorylation (Western blot)” value in experiment [3] (100 nM) is “weaker levels of phosphorylation”; in experiment [3] (1 μM and higher concentrations), “almost completely abrogated”. Also, the remaining binding at 0.1 µM in experiment [4] (WNK2 (Entrez WNK2), 100 nM, read-out: Percent Control) was determined as 100%. Besides, the remaining binding at 1 µM in experiment [4] (WNK2, 1 μM, read-out: POC (Top Hits @ 1 μM)) amounted to 49%; in experiment [4] (WNK2, 1000 nM, read-out: Percent Control) it was 49%. Also, the remaining activity at 0.1 µM in experiment [5] came out at 100%.
Turning to `CN1C(=O)[C@@H](N2CCc3c(C(N)=O)nn(Cc4ccccc4)c3C2=O)COc2ccccc21` [Compound 11], the ΔTm at 10 µM in experiment [1] turned out to be 2.2 °C. Moreover, the EC50 in experiment [2] (read-out: EC50 (NanoBRET)) was found to be 3500 nM. Besides, the “cofilin phosphorylation (Western blot)” value in experiment [3] (5 μM) is reported as “no effect”.

The values above are taken from article PMC12090182, “Repurposing of the RIPK1-Selective Benzo[1,4]oxazepin-4-one Scaffold for the Development of a Type III LIMK1/2 Inhibitor” (ACS Chemical Biology, 2025).
